Reference: US7867731B2, “HX2004-6 polypeptide expressed in cancerous cells” (Novartis Vaccines and Diagnostics, Inc., priority 1998, dated 2011)

How the values were obtained:
Format in all cases: cell-based, human
[1] = test system: TTK mRNA; test: Antisense depletion of TTK mRNA after transfection, quantitated by real-time PCR; conditions: SW620 cells, oligonucleotide final concentration 30 nM, normalized to beta-actin
Method: A number of different oligonucleotides complementary to TTK mRNA were designed as potential antisense oligonucleotides, and tested for their ability to suppress expression of TTK. The ability of each designed antisense oligonucleotide to inhibit gene expression was tested through transfection into SW620 colon colorectal carcinoma cells. For each transfection mixture, a carrier molecule, preferably a lipitoid or cholesteroid, was prepared to a working concentration of 0.5 mM in water, sonicated to yield a uniform solution, and filtered through a 0.45 μm PVDF membrane. The antisense or control oligonucleotide was then prepared to a working concentration of 100 μM in sterile Millipore water. The oligonucleotide was further diluted in OptiME™ (Gibco/BRL), in a microfuge tube, to 2 μM, or approximately 20 μg oligo/ml of OptiMEM™. […]
The level of target mRNA (TTK) in the transfected cells was quantitated in the cancer cell lines using the Roche LightCycler™ real-time PCR machine. […]
An amplification mixture was prepared by mixing in the following order: 1×PCR buffer II, 3 mM MgCl2, 140 μM each dNTP, 0.175 pmol each oligo, 1:50,000 dil of SYBR® Green, 0.25 mg/ml BSA, 1 unit Taq polymerase, and H2O to 20 μl. […] As double stranded PCR product is produced during amplification, the fluorescence from SYBR®) Green increases. […]

[2] = test system: SW620 cells; test: Soft agar colony formation assay; conditions: 2000 cells per well, oligo added without delivery vehicle
Method: The effect of TTK expression upon colony formation was tested in a soft agar assay. Soft agar assays were conducted by first establishing a bottom layer of 2 ml of 0.6% agar in media plated fresh within a few hours of layering on the cells. The cell layer was formed on the bottom layer by removing cells transfected as described above from plates using 0.05% trypsin and washing twice in media. The cells were counted in a Coulter counter, and resuspended to 10^6 per ml in media. 10 μl aliquots are placed with media in 96-well plates (to check counting with WST1), or diluted further for soft agar assay. 2000 cells are plated in 800 μl 0.4% agar in duplicate wells above 0.6% agar bottom layer. After the cell layer agar solidifies, 2 ml of media is dribbled on top and antisense or reverse control oligo is added without delivery vehicles. Fresh media and oligos are added every 3-4 days. Colonies are formed in 10 days to 3 weeks. Fields of colonies were counted by eye. Wst-1 metabolism values can be used to compensate for small differences in starting cell number. Larger fields can be scanned for visual record of differences.

[3] = test system: SW620 cells; test: Cell death by LDH release (Cytotoxicity Detection Kit)
Method: SW620 cells were transfected as described for proliferation assays. For cytotoxic effect in the presence of cisplatin (cis), the same protocol was followed but cells were left in the presence of 2 μM drug. Each day, cytotoxicity was monitored by measuring the amount of LDH enzyme released in the medium due to membrane damage. The activity of LDH was measured using the Cytotoxicity Detection Kit from Roche Molecular Biochemicals. The data is provided as a ratio of LDH released in the medium vs. the total LDH present in the well at the same time point and treatment (rLDH/tLDH).

| Substance | depletion of TTK RNA in the transfection assays [1] | colony size and number compared to reverse control (79-9RC) or control oligonucleotides (52-3AS, 52-3RC) [2] | sensitization of the cells to treatment by cisplatin ([3]; 2 μM cisplatin, rLDH/tLDH) | cell death compared to control oligo (rLDH/tLDH) ([3]; day 3) |
| --- | --- | --- | --- | --- |
| 79-5AS (antisense GGGACTCTTCCAAATGGGCATGACT; chemistry not given here) [Oligo 79-5AS] | effectively deplete TTK RNA |  |  |  |
| 79-9AS (antisense TCCAGTAACTCTTGCGTTCCCATGG; chemistry not given here) [Oligo 79-9AS] | effectively deplete TTK RNA | decreased colony size and number |  |  |
| Oligo 79-9AS: TTK antisense oligonucleotide TCCAGTAACTCTTGCGTTCCCATGG (SEQ ID NO:6) (chemistry not given here) |  |  | does not sensitize the cells to treatment by cisplatin at a detectable level | increased death |
